Series [1] addresses T1, mouse GLP-1 receptor (Mus musculus, UniProt O35659).
T1 sequence (O35659 22-463): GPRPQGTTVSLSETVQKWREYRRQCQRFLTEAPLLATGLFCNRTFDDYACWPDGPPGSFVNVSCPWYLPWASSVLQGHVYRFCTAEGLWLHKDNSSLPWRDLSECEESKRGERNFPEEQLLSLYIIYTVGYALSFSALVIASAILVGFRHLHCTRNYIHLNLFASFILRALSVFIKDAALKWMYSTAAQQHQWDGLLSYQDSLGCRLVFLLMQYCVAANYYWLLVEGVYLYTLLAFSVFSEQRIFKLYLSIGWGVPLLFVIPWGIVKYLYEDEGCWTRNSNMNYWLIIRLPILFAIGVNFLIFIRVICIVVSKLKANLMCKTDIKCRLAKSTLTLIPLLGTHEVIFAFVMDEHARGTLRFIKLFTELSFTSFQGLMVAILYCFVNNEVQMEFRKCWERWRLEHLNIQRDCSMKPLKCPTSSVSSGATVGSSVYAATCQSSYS
The conditions noted are these: for Potency (%), percentage of potency compare to GLP-1-G^2: cAMP production, from EC50. Background: Cyclic AMP is a second messenger, typically raised through Gs and lowered through Gi signalling.

Series [2] addresses T1, mouse GLP-1 receptor. In words: cell-based. The conditions noted are these: for Emax: 14: experiment 1.
In a further series the test system is normal mice (C57BL/6J). Nature of the series: Blood glucose study in normal fed mice. It is filed as in vivo, mouse. Further details: key to In vivo activity (indicator): + active; +++: + + + more active. The conditions noted are these: for effect on blood glucose concentration: normal fed C57BL/6J mice, n = 3, 5 μg per mouse (50 nmol kg−1) i.v., monitored 6 h. Here is the method:
In the first study, we evaluated the effect of the analogues on the blood glucose concentration of normal mice (Fig. 3). The fed mice were treated with the analogues and their blood glucose concentration was monitored before and after dosing for 6 h. […] Indeed, a decrease of blood glucose concentration is observed after 30 min and the effect is preserved for 4 h after dosing.
Fig. 3 Blood glucose study in mice. a–c Blood glucose concentration in normal mice (C57BL/6J, male, 20–25 g, n = 3) before and after dosing: 5 μg per mouse (50 nmol kg^−1) i.v. Formulation: 20 μg mL^−1 in PBS 1×. The dosing was done at T0. Data are mean ± SEM. […] Source data are provided as a Source Data file
After the acclimation period (at least 5 days), mice (male C57BL/6J mice (Charles River laboratories) 8 weeks old, 20–25 g) were randomized into 10 groups (n = 3 per group) according to their body weight. They were acutely treated via i.v. route at 10 am (5 µg per mouse). Blood glucose was measured before dosing and at 30 min, 1, 2, 4, 6 h after dosing in fed conditions.

Another series in a line: in vitro. The conditions noted are these: mouse, plasma, pH 7.4, % remaining analogue. Here is the method: The oligomer was then diluted 1/50 with a solution of plasma/PBS pH 7.4 (1:1) to afford a final concentration of 5 µM and incubated at 37 °C (4 µL of the stock solution was diluted with 196 µL of plasma/PBS, pH 7.4, 1:1). Each compound was also incubated in the absence of plasma (196 µL of H2O/PBS, pH 7.4, 1:1). At the indicated time (20 min and 60 min) an aliquot of 70 µL was removed from each experimental reaction and pipetting into 175 µL of acetonitrile at 0 °C to quench the reaction (t = 0 min was determined using the reaction without plasma). The samples were frozen at –80 °C before analysis. The frozen samples were defrosted, stirred with a vortex 5 min and finally centrifuged 5 min at 16 °C (1500 × g). The supernatant was analysed by LC-MS. The time course of oligomer degradation was determined by integrating the area of the peak in the extracted ion chromatogram.
Supplementar y Figur e 2 : Mouse plasma degradation assay. […] Data are
mean ± SEM, n = 4. Source data are provided as a Source Data file (T able 2 tab).
Supplementar y Figur e 3.
Data are mean ± SEM, n = 3.
Source data are provided as a Source Data file […]

Read-outs that look alike come from different tables or passages of the source. Starred links: 1 amine or outer side, 2 acyl side, 3 side chain; linkers in the order of their positions; H or OH if unused. Positions of bridges follow the written chain, without caps; N, C: chain ends. Residues, ends and D or L forms follow the SMILES beside them. Chains are numbered I, II in the order given. X4 = C[C@@H](CNC(=O)N[C@@H](C)CNC(=O)[*:2])NC(=O)NC[C@H](CCC(=O)O)N[*:1]

`CC[C@H](C)[C@@H](CNC(=O)N[C@@H](C)CNC(=O)N[C@@H](CC(C)C)C(=O)N[C@H](C(=O)N[C@@H](CCCCN)C(=O)NCC(=O)N[C@@H](CCCNC(=N)N)C(=O)NCC(N)=O)C(C)C)NC(=O)N[C@@H](CNC(=O)[C@H](CCC(=O)O)NC(=O)[C@H](CCCCN)NC(=O)[C@H](C)NC(=O)[C@H](C)NC(=O)[C@H](CCC(N)=O)NC(=O)CNC(=O)[C@H](CCC(=O)O)NC(=O)[C@H](CC(C)C)NC(=O)[C@H](Cc1ccc(O)cc1)NC(=O)[C@H](CO)NC(=O)[C@H](CO)NC(=O)[C@@H](NC(=O)[C@H](CC(=O)O)NC(=O)[C@H](CO)NC(=O)[C@@H](NC(=O)[C@H](Cc1ccccc1)NC(=O)[C@@H](NC(=O)CNC(=O)[C@H](CCC(=O)O)NC(=O)CNC(=O)[C@@H](N)Cc1c[nH]cn1)[C@@H](C)O)[C@@H](C)O)C(C)C)Cc1ccccc1` [compound 16, GG2[F^uαf^uA^u]^22-25]: the “Potency (%), percentage of potency compare to GLP-1-G^2” value (“Potency (%), percentage” for short) on mouse GLP-1 receptor [1] turned out to be 0.4%. Also, the EC50 at mouse GLP-1 receptor [2] amounted to 62 nM. Besides, the Emax at mouse GLP-1 receptor [2] (read-out: Top (best-fit value), fit with BOTTOM = 0%) amounted to 228%. In addition, the “effect on blood glucose concentration” value in the series with normal mice (C57BL/6J) was “showed no activity”. This compound yielded an amount remaining at 1 h, 5 µM in the series “in vitro” of 41.6%.

As for `CC[C@H](C)[C@H](NC(=O)[C@H](Cc1ccccc1)NC(=O)[C@H](CCC(=O)O)NC(=O)[C@H](CCCCN)NC(=O)[C@H](C)NC(=O)[C@H](C)NC(=O)[C@H](CCC(N)=O)NC(=O)CNC(=O)[C@H](CCC(=O)O)NC(=O)NC[C@H](C)NC(=O)NC[C@H](Cc1ccc(O)cc1)NC(=O)NC[C@H](C)NC(=O)[C@@H](NC(=O)[C@H](CC(=O)O)NC(=O)[C@H](CO)NC(=O)[C@@H](NC(=O)[C@H](Cc1ccccc1)NC(=O)[C@@H](NC(=O)CNC(=O)[C@H](CCC(=O)O)NC(=O)CNC(=O)[C@@H](N)Cc1c[nH]cn1)[C@@H](C)O)[C@@H](C)O)C(C)C)C(=O)N[C@@H](C)C(=O)N[C@@H](Cc1c[nH]c2ccccc12)C(=O)N[C@@H](CC(C)C)C(=O)N[C@H](C(=O)N[C@@H](CCCCN)C(=O)NCC(=O)N[C@@H](CCCNC(=N)N)C(=O)NCC(N)=O)C(C)C` [compound 5, GG2[A^uY^uA^u]^11-14], at mouse GLP-1 receptor [1], the “LogEC50 (best-fit value)” value was -8.806 and the “Potency (%), percentage” value was determined as 15%. In addition, it took 1.6 nM to reach a half-maximal effect on mouse GLP-1 receptor [2] (EC50). Besides, the Emax at mouse GLP-1 receptor [2] (read-out: Top (best-fit value), variable slope four-parameter fit, unconstrained) turned out to be 89.4%. Besides, in the series with normal mice (C57BL/6J) (mice, 50 nmol kg−1 i.v.), the “In vivo activity (indicator)” value is given as “+”. For the same compound, the “effect on blood glucose concentration” value in the series on normal mice (C57BL/6J) is “showed efficacy but no improvement”. Further, in “in vitro”, the amount remaining at 20 min, 5 µM is 55% and the fraction remaining at 1 h, 5 µM was found to be 33.6%.

With `CC[C@H](C)[C@H](NC(=O)[C@H](Cc1ccccc1)NC(=O)[C@H](CCC(=O)O)NC(=O)[C@H](CCCCN)NC(=O)[C@H](C)NC(=O)NC[C@H](C)NC(=O)NC[C@H](C)NC(=O)NC[C@H](CCC(=O)O)NC(=O)[C@H](CC(C)C)NC(=O)[C@H](Cc1ccc(O)cc1)NC(=O)[C@H](CO)NC(=O)[C@H](CO)NC(=O)[C@@H](NC(=O)[C@H](CC(=O)O)NC(=O)[C@H](CO)NC(=O)[C@@H](NC(=O)[C@H](Cc1ccccc1)NC(=O)[C@@H](NC(=O)CNC(=O)[C@H](CCC(=O)O)NC(=O)CNC(=O)[C@@H](N)Cc1c[nH]cn1)[C@@H](C)O)[C@@H](C)O)C(C)C)C(=O)N[C@@H](C)C(=O)N[C@@H](Cc1c[nH]c2ccccc12)C(=O)N[C@@H](CC(C)C)C(=O)N[C@H](C(=O)N[C@@H](CCCCN)C(=O)NCC(=O)N[C@@H](CCCNC(=N)N)C(=O)NCC(N)=O)C(C)C` [compound 11, GG2[E^uA^uA^u]^15-18] (I: H-HGEGTFTSDVSSYL / II: AKEFIAWLVKGRG-NH2; linker I:C-II:N via X4), at mouse GLP-1 receptor [1], the “LogEC50 (best-fit value)” value is -8.721 and the “Potency (%), percentage” value came to 13%. Further, in “in vitro”, the amount remaining at 20 min, 5 µM is 44.7% and the fraction remaining at 1 h, 5 µM was found to be 31.1%.

Usually EC50 stands for the midpoint of the concentration-response curve. By amount remaining is commonly meant the share of the starting amount still present when the sample was taken.
